Data published in ChEMBL document CHEMBL1126483 (Bioorg Med Chem Lett, 1993).
Peptide text beside a SMILES is read from it.

biological target: Neurotensin receptor type 1 (Mus musculus) (UniProt O88319); conditions: Cerebellum
Sequence (O88319 whole entry): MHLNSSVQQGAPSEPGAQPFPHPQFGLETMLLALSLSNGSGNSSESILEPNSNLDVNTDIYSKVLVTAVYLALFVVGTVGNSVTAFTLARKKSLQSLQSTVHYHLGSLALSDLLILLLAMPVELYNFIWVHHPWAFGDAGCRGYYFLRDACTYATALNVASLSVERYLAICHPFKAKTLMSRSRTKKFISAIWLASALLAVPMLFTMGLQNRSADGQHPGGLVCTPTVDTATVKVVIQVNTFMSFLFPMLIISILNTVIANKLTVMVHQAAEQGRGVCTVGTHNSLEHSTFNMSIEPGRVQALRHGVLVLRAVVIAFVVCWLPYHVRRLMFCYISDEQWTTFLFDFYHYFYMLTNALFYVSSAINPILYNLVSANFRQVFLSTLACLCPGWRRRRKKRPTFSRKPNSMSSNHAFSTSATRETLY
Description: Tested for change in binding affinity in neonatal mouse whole brain (minus cerebellum)

Ki(1.8x10e-11) [M] | SMILES
1 | CC[C@@H](C)[C@H](NC(=O)[C@H](Cc1ccc(O)cc1)NC(=O)[C@@H]1CCCN1C(=O)[C@H](CCCNC(=N)N)NC(=O)[C@@H](N)CCCNC(=N)N)C(=O)N[C@@H](CC(C)C)C(=O)O

biological target: Neurotensin receptor type 1 (Mus musculus) (UniProt O88319); assay: Tested for change in binding affinity to Neurotensin (NT) receptor in neonatal mouse whole brain (minus cerebellum); format: tissue-based; conditions: not given

SMILES | Ki ratio
CC[C@@H](C)[C@H](NC(=O)[C@H](C)NC(=O)[C@@H]1CCCN1C(=O)[C@H](CCCN=C(N)N)NC(=O)[C@@H](N)CCCN=C(N)N)C(=O)N[C@@H](C)C(=O)O | 220000
CC[C@@H](C)[C@H](NC(=O)[C@H](Cc1ccc(O)cc1)NC(=O)[C@H](C)NC(=O)[C@H](CCCN=C(N)N)NC(=O)[C@@H](N)CCCN=C(N)N)C(=O)N[C@@H](CC(C)C)C(=O)O | 50

Further lines, results first:

Ki ratio | SMILES
250 | CC(C)C[C@H](NC(=O)[C@H](C)NC(=O)[C@H](Cc1ccc(O)cc1)NC(=O)[C@@H]1CCCN1C(=O)[C@H](CCCN=C(N)N)NC(=O)[C@@H](N)CCCN=C(N)N)C(=O)O (H-RRPYAL-OH)
14 | CC[C@@H](C)[C@H](NC(=O)[C@H](Cc1ccc(O)cc1)NC(=O)[C@@H]1CCCN1C(=O)[C@H](CCCN=C(N)N)NC(=O)[C@H](C)N)C(=O)N[C@@H](CC(C)C)C(=O)O
6100 | CC[C@@H](C)[C@H](NC(=O)[C@H](C)NC(=O)[C@@H]1CCCN1C(=O)[C@H](CCCN=C(N)N)NC(=O)[C@@H](N)CCCN=C(N)N)C(=O)N[C@@H](CC(C)C)C(=O)O
120 | CC[C@@H](C)[C@H](NC(=O)[C@H](Cc1ccc(O)cc1)NC(=O)[C@@H]1CCCN1C(=O)[C@H](C)NC(=O)[C@@H](N)CCCN=C(N)N)C(=O)N[C@@H](CC(C)C)C(=O)O
11000 | CC[C@@H](C)[C@H](NC(=O)[C@H](Cc1ccc(O)cc1)NC(=O)[C@@H]1CCCN1C(=O)[C@H](CCCN=C(N)N)NC(=O)[C@@H](N)CCCN=C(N)N)C(=O)N[C@@H](C)C(=O)O

biological target: Neurotensin receptor type 1 (Mus musculus, UniProt O88319); assay: Inhibition of specific binding of [125I]-Tyr3-NT(1-13) to NT receptors in neonatal mouse whole brain (minus cerebellum); format: tissue-based; conditions: not given
Sequence (O88319 whole entry): as above

SMILES | Ki [nM]
CC[C@H](C)[C@H](NC(=O)[C@H](Cc1ccc(O)cc1)NC(=O)[C@@H]1CCCN1C(=O)[C@H](CCCNC(=N)N)NC(=O)[C@H](CCCNC(=N)N)NC(=O)[C@@H]1CCCN1C(=O)[C@H](CCCCN)NC(C)=O)C(=O)N[C@@H](CC(C)C)C(=O)O | 0.024
CC[C@H](C)[C@H](NC(=O)[C@H](Cc1ccc(O)cc1)NC(=O)[C@@H]1CCCN1C(=O)[C@H](CCCNC(=N)N)NC(=O)[C@H](CCCNC(=N)N)NC(=O)[C@@H]1CCCN1C(=O)[C@H](CCCCN)NC(=O)[C@H](CC(N)=O)NC(=O)[C@H](CCC(=O)O)NC(=O)[C@H](Cc1ccc(O)cc1)NC(=O)[C@H](CC(C)C)NC(C)=O)C(=O)N[C@@H](CC(C)C)C(=O)O | 0.11
CC[C@H](C)[C@H](NC(=O)[C@H](Cc1ccc(O)cc1)NC(=O)[C@@H]1CCCN1C(=O)[C@H](CCCNC(=N)N)NC(=O)[C@H](CCCNC(=N)N)NC(=O)[C@@H]1CCCN1C(C)=O)C(=O)N[C@@H](CC(C)C)C(=O)O (Ac-PRRPYIL-OH) | 0.1
CC[C@H](C)[C@H](NC(=O)[C@H](C)NC(=O)[C@@H]1CCCN1C(=O)[C@H](CCCN=C(N)N)NC(=O)[C@@H](N)CCCN=C(N)N)C(=O)N[C@@H](C)C(=O)O | 3900
CC[C@H](C)[C@H](NC(=O)[C@H](Cc1ccc(O)cc1)NC(=O)[C@H](C)NC(=O)[C@H](CCCN=C(N)N)NC(=O)[C@@H](N)CCCN=C(N)N)C(=O)N[C@@H](CC(C)C)C(=O)O | 0.92
CC[C@H](C)[C@H](NC(=O)[C@H](Cc1ccc(O)cc1)NC(=O)[C@@H]1CCCN1C(=O)[C@H](CCCNC(=N)N)NC(=O)[C@H](CCCNC(=N)N)NC(=O)[C@@H]1CCCN1C(=O)[C@H](CCCCN)NC(=O)[C@H](CC(N)=O)NC(C)=O)C(=O)N[C@@H](CC(C)C)C(=O)O (Ac-NKPRRPYIL-OH) | 0.013
CC[C@H](C)[C@H](NC(=O)[C@H](Cc1ccc(O)cc1)NC(=O)[C@@H]1CCCN1C(=O)[C@H](CCCNC(=N)N)NC(=O)[C@@H](N)CCCNC(=N)N)C(N)=O | 12000
CC[C@H](C)[C@H](NC(=O)[C@H](Cc1ccc(O)cc1)NC(=O)[C@@H]1CCCN1C(=O)[C@H](CCCNC(=N)N)NC(=O)[C@H](CCCNC(=N)N)NC(=O)[C@@H]1CCCN1C(=O)[C@H](CCCCN)NC(=O)[C@H](CC(N)=O)NC(=O)[C@H](CCC(=O)O)NC(C)=O)C(=O)N[C@@H](CC(C)C)C(=O)O (Ac-ENKPRRPYIL-OH) | 0.12
CC[C@H](C)[C@H](NC(=O)[C@H](Cc1ccc(O)cc1)NC(=O)[C@@H]1CCCN1C(=O)[C@H](CCCN=C(N)N)NC(=O)[C@H](CCCN=C(N)N)NC(=O)[C@@H]1CCCN1C(=O)[C@H](CCCCN)NC(=O)[C@H](CC(N)=O)NC(=O)[C@H](CCC(=O)O)NC(=O)[C@H](Cc1ccc(O)cc1)NC(C)=O)C(=O)N[C@@H](CC(C)C)C(=O)O (Ac-YENKPRRPYIL-OH) | 0.21

Other lines, results leading:

Ki [nM] | SMILES
110 | CC[C@H](C)[C@H](NC(=O)[C@H](C)NC(=O)[C@@H]1CCCN1C(=O)[C@H](CCCN=C(N)N)NC(=O)[C@@H](N)CCCN=C(N)N)C(=O)N[C@@H](CC(C)C)C(=O)O
2.1 | CC[C@H](C)[C@H](NC(=O)[C@H](Cc1ccc(O)cc1)NC(=O)[C@@H]1CCCN1C(=O)[C@H](C)NC(=O)[C@@H](N)CCCN=C(N)N)C(=O)N[C@@H](CC(C)C)C(=O)O
0.25 | CC[C@H](C)[C@H](NC(=O)[C@H](Cc1ccc(O)cc1)NC(=O)[C@@H]1CCCN1C(=O)[C@H](CCCNC(=N)N)NC(=O)[C@H](C)N)C(=O)N[C@@H](CC(C)C)C(=O)O
4.5 | CC(C)C[C@H](NC(=O)[C@H](C)NC(=O)[C@H](Cc1ccc(O)cc1)NC(=O)[C@@H]1CCCN1C(=O)[C@H](CCCNC(=N)N)NC(=O)[C@@H](N)CCCNC(=N)N)C(=O)O (H-RRPYAL-OH)
200 | CC[C@H](C)[C@H](NC(=O)[C@H](Cc1ccc(O)cc1)NC(=O)[C@@H]1CCCN1C(=O)[C@H](CCCNC(=N)N)NC(=O)[C@@H](N)CCCNC(=N)N)C(=O)N[C@@H](C)C(=O)O
